Structures can show the parent of a compound that is named as a salt. Where two headings read alike, the source gives them in different places.
Experiments:
PDGFRα = PDGFRα (Homo sapiens (Human), UniProt P16234); assay: PDGFRα kinase enzyme assay (Promega PDGFRα Kinase Enzyme System, ADP-Glo); assay type: biochemical; settings: 150 uM ATP
Method in brief: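 Purified PDGFRα protein (20 ng) reacted with test compound per the Promega kinase system protocol. ADP formed was measured by ADP-Glo luminescence against a standard curve, giving IC50.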

[1] = system: GPR17+ cells (newly differentiated oligodendrocytes); assay: In vivo OPC differentiation, GPR17+ cells in brain; settings: for In vivo GPR17+ cells, GPR17 Fold Induction (Over Vehicle): adult female C57BL/6 mice, PO or IP, treatment period 1-3 days, entire brain, fold change over vehicle treated animals
[2] = system: Oligodendrocyte progenitor cells (OPCs); assay: In vitro OPC differentiation assay, GPR17 expression (immunocytochemistry); settings: 72 hours; for GPR17 Fold Induction (Over Vehicle; 5 μM): primary rat OPCs, 5 μM (10x; final 0.5 μM per method), percent GPR17+ cells as fold change over vehicle; for GPR17 Fold Induction (Over Vehicle; 3 μM): 3 μM (10× concentration, final 0.3 μM), fold change over vehicle
[3] = 20 ng purified PDGFRα, Poly (Glu4Tyr1) substrate, two hours, 11-point dose response, read-out: IC50 Values on PDGFRα Kinase Inhibition
[4] = 11-point dose response, 10,000 nM to 0.169 nM, BLQ = below limit of quantitation, read-out: IC50 Values on PDGFRα Kinase Inhibition, IC50
[5] = Mus musculus, po, 24 h, read-out: GPR17 Fold Induction (Over Vehicle)

Chain of PDGFRα (P16234 24-1089): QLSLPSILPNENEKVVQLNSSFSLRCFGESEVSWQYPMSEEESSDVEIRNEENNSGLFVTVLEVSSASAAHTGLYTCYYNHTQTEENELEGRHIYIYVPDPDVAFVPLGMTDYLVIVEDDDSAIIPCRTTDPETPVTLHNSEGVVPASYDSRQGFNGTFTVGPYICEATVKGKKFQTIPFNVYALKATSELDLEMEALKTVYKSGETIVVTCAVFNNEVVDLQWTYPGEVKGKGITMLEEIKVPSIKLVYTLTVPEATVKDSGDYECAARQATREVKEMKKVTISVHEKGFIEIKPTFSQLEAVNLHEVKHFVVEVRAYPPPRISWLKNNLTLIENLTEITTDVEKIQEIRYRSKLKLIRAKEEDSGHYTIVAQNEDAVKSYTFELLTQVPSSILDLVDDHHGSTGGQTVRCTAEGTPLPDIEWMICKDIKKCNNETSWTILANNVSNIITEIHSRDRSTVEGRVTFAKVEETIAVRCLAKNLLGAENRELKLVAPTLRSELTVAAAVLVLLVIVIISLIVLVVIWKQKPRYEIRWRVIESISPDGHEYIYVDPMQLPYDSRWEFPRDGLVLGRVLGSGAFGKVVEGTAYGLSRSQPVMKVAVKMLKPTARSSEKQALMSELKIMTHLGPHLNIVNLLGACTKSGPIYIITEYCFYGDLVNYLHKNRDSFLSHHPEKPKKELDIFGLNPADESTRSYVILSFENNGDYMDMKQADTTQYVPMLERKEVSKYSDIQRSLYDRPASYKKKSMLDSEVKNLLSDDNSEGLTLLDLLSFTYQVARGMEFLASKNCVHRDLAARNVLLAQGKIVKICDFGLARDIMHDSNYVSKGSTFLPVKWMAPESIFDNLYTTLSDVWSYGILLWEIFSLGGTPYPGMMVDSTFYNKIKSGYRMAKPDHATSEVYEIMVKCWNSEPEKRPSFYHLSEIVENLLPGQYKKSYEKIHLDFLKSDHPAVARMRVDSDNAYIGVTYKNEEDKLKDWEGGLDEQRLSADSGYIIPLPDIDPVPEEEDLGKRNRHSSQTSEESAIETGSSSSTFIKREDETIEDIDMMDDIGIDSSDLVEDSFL

SMILES | IC50 (PDGFRα; [4]) | GPR17 Fold Induction (Over Vehicle; 3 μM) [2] | fold induction at 3 mg/kg [1, 5] | also measured
COc1cc2c(Oc3ccc4[nH]c(C)cc4c3F)ccnc2cc1OCC1(N)CC1 [Anlotinib HCl, anlotinib HCl, reference compound] | – | – | – | IC50 (PDGFRα; [3]): 1360 nM; In vivo GPR17+ cells, GPR17 Fold Induction (Over Vehicle) [1]: 17.89; GPR17 Fold Induction (Over Vehicle; 5 μM) [2]: 6.58
Nc1nc(Nc2ccc3c(c2)CC[C@@H](N2CCCC2)CC3)nn1-c1cc2c(nn1)-c1ccccc1CCC2 [Bemcentinib, bemcentinib, reference compound] | – | – | – | IC50 (PDGFRα; [3]): 428 nM; In vivo GPR17+ cells, GPR17 Fold Induction (Over Vehicle) [1]: 1.09; GPR17 Fold Induction (Over Vehicle; 5 μM) [2]: 2.99
COCCOc1ccc2c(c1)ncn2-c1ccc2cccc(N3CCC(N)CC3)c2n1 [CP-673451, reference compound] | – | – | – | IC50 (PDGFRα; [3]): 115 nM; In vivo GPR17+ cells, GPR17 Fold Induction (Over Vehicle) [1]: 3.52; GPR17 Fold Induction (Over Vehicle; 5 μM) [2]: 2.94
Cn1cc(-c2cnc3c(N4CCN(C(=O)OC(C)(C)C)CC4)cnn3c2)cn1 [Compound 2, tert-butyl 4-[6-(1-methyl-1H-pyrazol-4-yl)pyrazolo[1,5-a]pyrimidin-3-yl]piperazine-1-carboxylate] | 1460 nM | 1.46 | – | fold induction at 3.3 mg/kg [1, 5]: 1.13
Cn1cc(-c2ccc3c(N4CCN(C(=O)CC(C)(C)C)CC4)cnn3c2)cn1 [Compound 17, 3-[4-(3,3-dimethylbutanoyl)piperazin-1-yl]-6-(1-methyl-1H-pyrazol-4-yl)pyrazolo[1,5-a]pyridine] | 1600 nM | 1.14 | – | fold induction at 3.3 mg/kg [1, 5]: 1.14
Cn1cc(-c2ccc3c(C4CCN(c5ncc(Cc6ccccc6)cn5)CC4)cnn3c2)cn1 [Compound 63, 3-[1-(5-benzylpyrimidin-2-yl)piperidin-4-yl]-6-(1-methyl-1H-pyrazol-4-yl)pyrazolo[1,5-a]pyridine] | 1100 nM | 8.97 | 1.83 | –
Cc1ccc(Cc2cnc(N3CCN(c4cnn5cc(-c6cnn(C)c6)ccc45)CC3)nc2)cc1 [Compound 67, 3-{4-[5-(4-methylbenzyl)pyrimidin-2-yl]piperazin-1-yl}-6-(1-methyl-1H-pyrazol-4-yl)pyrazolo[1,5-a]pyridine] | 784 nM | 3.41 | – | fold induction at 10 mg/kg [1, 5]: 9.4
Cn1cc(-c2ccc3c(N4CCN(c5ncc(C(O)C6CCOCC6)cn5)CC4)cnn3c2)cn1 (stereo not shown) [Compound 69, (2-{4-[6-(1-methyl-1H-pyrazol-4-yl)pyrazolo[1,5-a]pyridin-3-yl]piperazin-1-yl}pyrimidin-5-yl)(tetrahydro-2H-pyran-4-yl)methanol] | 154 nM | 4.53 | 1.09 | fold induction at 30 mg/kg [1, 5]: 2.34
C[C@@H](OC(=O)N1CCN(c2cnn3cc(-c4cnn(C)c4)cnc23)CC1)c1ccccc1 [Compound 73, (1R)-1-Phenylethyl 4-[6-(1-methyl-1H-pyrazol-4-yl)pyrazolo[1,5-a]pyrimidin-3-yl]piperazine-1-carboxylate] | 116 nM | 6.68 | 1.77 | –
C[C@@H](OC(=O)N1CCN(c2cnn3cc(-c4cnn(C)c4)ccc23)CC1)c1ccc(F)cc1 [Compound 77, (1R)-1-(4-Fluorophenyl)ethyl 4-[6-(1-methyl-1H-pyrazol-4-yl)pyrazolo[1,5-a]pyridin-3-yl]piperazine-1-carboxylate] | – | 7.12 | 8.64 | IC50 Values on PDGFRα Kinase Inhibition, IC50 (nM) (PDGFRα; 11-point dose response, 10,000 nM to 0.169 nM, BLQ = below limit of quantitation): BLQ
C[C@@H](OC(=O)N1CCN(c2cnn3cc(-c4cnn(C)c4)ccc23)CC1)c1cccc(F)c1 [Compound 79, (1R)-1-(3-Fluorophenyl)ethyl 4-[6-(1-methyl-1H-pyrazol-4-yl)pyrazolo[1,5-a]pyridin-3-yl]piperazine-1-carboxylate] | 16.1 nM | 5.46 | 2.81 | –

Further lines, with some results ahead:

IC50 (PDGFRα; [4]) | GPR17 Fold Induction (Over Vehicle; 3 μM) [2] | SMILES | fold induction at 3 mg/kg [1, 5] | also measured
8160 nM | 7.82 | Cn1cc(-c2ccc3c(N4CCC(c5ncc(Cc6ccccc6)cn5)CC4)cnn3c2)cn1 [Compound 148, 3-(4-(5-benzylpyrimidin-2-yl)piperidin-1-yl)-6-(1-methyl-1H-pyrazol-4-yl)pyrazolo[1,5-a]pyridine] | 1.22 | –
2780 nM | 20.40 | Cn1cc(-c2ccc3c(N4CCN(c5ccc(Cc6ccccc6)nc5)CC4)cnn3c2)cn1 [Compound 151, 3-(4-(6-benzylpyridin-3-yl)piperazin-1-yl)-6-(1-methyl-1H-pyrazol-4-yl)pyrazolo[1,5-a]pyridine] | 1.73 | –
245 nM | 3.92 | Cn1cc(-c2ccc3c(N4CCN(c5ncn(Cc6ccccc6)n5)CC4)cnn3c2)cn1 [Compound 156, 3-(4-(1-benzyl-1H-1,2,4-triazol-3-yl)piperazin-1-yl)-6-(1-methyl-1H-pyrazol-4-yl)pyrazolo[1,5-a]pyridine] | 11.5 | –
2100 nM | 2.80 | Cn1cc(-c2ccc3c(N4CCN(S(=O)(=O)N5CCCCC5)CC4)cnn3c2)cn1 [Compound 157, 6-(1-methyl-1H-pyrazol-4-yl)-3-(4-(piperidin-1-ylsulfonyl)piperazin-1-yl)pyrazolo[1,5-a]pyridine] | – | fold induction at 30 mg/kg [1, 5]: 1.91
2110 nM | 3.97 | Cn1cc(-c2ccc3c(N4CCN(C(=O)NCc5ccccc5)CC4)cnn3c2)cn1 [Compound 161, N-benzyl-4-(6-(1-methyl-1H-pyrazol-4-yl)pyrazolo[1,5-a]pyridin-3-yl)piperazine-1-carboxamide] | 1.81 | –
1860 nM | 4.87 | Cn1cc(-c2ccc3c(N4CCN(c5ncc(Cc6ccco6)cn5)CC4)cnn3c2)cn1 [Compound 181, 3-(4-(5-(furan-2-ylmethyl)pyrimidin-2-yl)piperazin-1-yl)-6-(1-methyl-1H-pyrazol-4-yl)pyrazolo[1,5-a]pyridine] | 1 | –
126 nM | 9.26 | Cn1cc(-c2ccc3c(N4CCN(c5ncc(CC6CCCCO6)cn5)CC4)cnn3c2)cn1 (stereo not shown) [Compound 184, 6-(1-methyl-1H-pyrazol-4-yl)-3-(4-(5-((tetrahydro-2H-pyran-2-yl)methyl)pyrimidin-2-yl)piperazin-1-yl)pyrazolo[1,5-a]pyridine] | 1.07 | –
153 nM | 4.97 | Cn1cc(-c2ccc3c(N4CCN(c5ncc([S+]([O-])c6ccccc6)cn5)CC4)cnn3c2)cn1 (stereo not shown) [Compound 187, 6-(1-methyl-1H-pyrazol-4-yl)-3-(4-(5-(phenylsulfinyl)pyrimidin-2-yl)piperazin-1-yl)pyrazolo[1,5-a]pyridine] | 1.32 | –
594 nM | 1.69 | CC(C)(C)OC(=O)N1CCN(c2cnn3cc(-c4cccnc4)ccc23)CC1 [Compound 217, tert-butyl 4-(6-(pyridin-3-yl)pyrazolo[1,5-a]pyridin-3-yl)piperazine-1-carboxylate] | 0.97 | –
430 nM | 6.34 | CC1CN(c2cnn3cc(-c4cnn(C)c4)ccc23)CCN1C(=O)OC(C)(C)C (stereo not shown) [Compound 238, tert-butyl-2-methyl-4-(6-(1-methyl-1H-pyrazol-4-yl)pyrazolo[1,5-a]pyridin-3-yl)piperazine-1-carboxylate] | 1.54 | –
974 nM | 16.27 | Cn1cc(-c2ccc3c(N4CCN(c5ccc(C(O)c6ccccc6)nc5)CC4)cnn3c2)cn1 (stereo not shown) [Compound 241, (5-(4-(6-(1-methyl-1H-pyrazol-4-yl)pyrazolo[1,5-a]pyridin-3-yl)piperazin-1-yl)pyridin-2-yl)(phenyl)methanol] | 6.43 | –
1780 nM | 2.45 | Cn1cc(-c2ccc3c(N4CCN(c5ncc(Cc6ccccc6)o5)CC4)cnn3c2)cn1 [Compound 247, 5-benzyl-2-(4-(6-(1-methyl-1H-pyrazol-4-yl)pyrazolo[1,5-a]pyridin-3-yl)piperazin-1-yl)oxazole] | – | fold induction at 30 mg/kg [1, 5]: 8.43
80.4 nM | 9.74 | Cn1cc(-c2ccc3c(N4CCN(c5ncc(Cc6ccccn6)cn5)CC4)cnn3c2)cn1 [Compound 250, 6-(1-methyl-1H-pyrazol-4-yl)-3-{4-[5-(pyridine-2-ylmethyl)pyrimidin-2-yl]piperazin-1-yl}pyrazolo[1,5-a]pyridine] | 6.19 | –
79.8 nM | 10.85 | Cn1cc(-c2ccc3c(N4CCN(c5ncc(C(CO)c6ccc(F)cc6)cn5)CC4)cnn3c2)cn1 (stereo not shown) [Compound 257, 2-(4-fluorophenyl)-2-(2-(4-(6-(1-methyl-1H-pyrazol-4-yl)pyrazolo[1,5-a]pyridin-3-yl)piperazin-1-yl)pyrimidin-5-yl)ethan-1-ol] | 2.32 | –
17.1 nM | 5.04 | Cc1ccc(C(C)OC(=O)N2CCN(c3cnn4cc(-c5cnn(C)c5)ccc34)CC2)nc1 (stereo not shown) [Compound 261, 1-(5-methylpyridin-2-yl)ethyl 4-[6-(1-methyl-1H-pyrazol-4-yl)pyrazolo[1,5-a]pyridin-3-yl]piperazine-1-carboxylate] | 3.71 | –

— patent US20250129067A1 (Progentos Therapeutics, Inc., priority 2021, published 2025)
